Reference: patent US11066414B2, “Cot modulators and methods of use thereof” (Gilead Sciences, Inc., priority 2015, dated 2021)
Like-named read-outs stand apart in the source and are kept apart here.

Legend:
Human Cot = Human Cot (Homo sapiens (Human), UniProt P41279); experiment: High Throughput Cot Biochemical Assay
TNFα = experiment: Cot Monocyte TNFα Cell Based Assay
[1] = IC50 HTRF, Cot HTRF (TR-FRET KinEASE) biochemical assay, 400 μM ATP
[2] = Homo sapiens, Monocyte, read-out: EC50 TNF, LPS-stimulated human monocytes, TNFα TR-FRET
[3] = IC50 HTRF, Cot HTRF (TR-FRET) biochemical assay
[4] = Homo sapiens, Monocyte, read-out: EC50 TNF, LPS-stimulated human monocytes, TNFα
[5] = read-out: IC50 HTRF, Cot HTRF (TR-FRET KinEASE) biochemical assay, 400 μM ATP
[6] = read-out: EC50 TNF, LPS-stimulated human monocytes, TNFα TR-FRET

Sequence of Human Cot (P41279 30-397): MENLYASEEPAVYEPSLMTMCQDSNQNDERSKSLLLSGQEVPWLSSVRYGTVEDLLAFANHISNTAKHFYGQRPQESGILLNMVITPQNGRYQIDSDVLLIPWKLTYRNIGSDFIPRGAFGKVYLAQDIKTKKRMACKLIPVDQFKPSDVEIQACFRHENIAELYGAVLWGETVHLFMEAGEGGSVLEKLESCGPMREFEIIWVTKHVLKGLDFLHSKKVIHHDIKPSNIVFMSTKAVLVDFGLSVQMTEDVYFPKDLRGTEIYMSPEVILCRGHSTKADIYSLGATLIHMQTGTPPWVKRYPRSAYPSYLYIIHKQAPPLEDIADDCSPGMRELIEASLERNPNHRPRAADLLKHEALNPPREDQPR

Row | SMILES | IC50 (Human Cot; [3]) | EC50 (TNFα; [4]) | also measured
1 | COc1ccc2c([C@H](Nc3cc(Cl)c4ncc(C#N)c(NCC(C)(C)C)c4c3)c3cn(C4(C(F)(F)F)CC4)nn3)cccc2n1 [Example 930, (S)-8-chloro-6-(((2-methoxyquinolin-5-yl)(1-(1-(trifluoromethyl)cyclopropyl)-1H-1,2,3-triazol-4-yl)methyl)amino)-4-(neopentylamino)quinoline-3-carbonitrile] |  |  | IC50 (Human Cot; [1]): 33 nM; EC50 (TNFα; [2]): 504 nM
2 | CC(C)(C)CNc1c(C#N)cnc2c(Cl)cc(N[C@H](c3cn(C4(C(F)(F)F)CC4)nn3)c3cccc4c(=O)[nH]ccc34)cc12 [Example 676, (S)-8-chloro-4-(neopentylamino)-6-(((1-oxo-1,2-dihydroisoquinolin-5-yl)(1-(1-(trifluoromethyl)cyclopropyl)-1H-1,2,3-triazol-4-yl)methyl)amino)quinoline-3-carbonitrile] | 6 nM | 112 nM | 
3 | Cc1nc(F)ccc1[C@H](Nc1cc(Cl)c2ncc(C#N)c(NCC3(C(F)(F)F)CCC3)c2c1)c1cn(C2(C(F)F)CC2)nn1 [Example 731, (S)-8-chloro-6-(((1-(1-(difluoromethyl)cyclopropyl)-1H-1,2,3-triazol-4-yl)(6-fluoro-2-methylpyridin-3-yl)methyl)amino)-4-(((1-(trifluoromethyl)cyclobutyl)-methyl)amino)quinoline-3-carbonitrile] | 11 nM | 179 nM | 
4 | Cc1ncccc1[C@H](Nc1cc(Cl)c2ncc(C#N)c(Nc3ccc(Cl)c(Cl)c3F)c2c1)c1cn(C2CCN(C(C)(C)C)CC2)nn1 [Example 233, (S)-6-(((1-(1-(tert-butyl)piperidin-4-yl)-1H-1,2,3-triazol-4-yl)(2-methylpyridin-3-yl)methyl)amino)-8-chloro-4-((3,4-dichloro-2-fluorophenyl)amino)quinoline-3-carbonitrile] | 8 nM | 114 nM | 
5 | CC(C)(C)CNc1c(C#N)cnc2c(C#N)cc(N[C@H](c3cn(C4CC4)nn3)c3csc4cnccc34)cc12 [Example 856, (S)-6-(((1-cyclopropyl-1H-1,2,3-triazol-4-yl)(thieno[2,3-c]pyridin-3-yl)methyl)amino)-4-(neopentylamino)quinoline-3,8-dicarbonitrile] |  |  | IC50 (Human Cot; [1]): 1 nM; EC50 (TNFα; [2]): 29 nM
6 | COc1nccc2c([C@H](Nc3cc(Cl)c4ncc(C#N)c(NCC(C)(C)C)c4c3)c3nnn(C4(C(F)F)CC4)c3F)cccc12 [Example 923, (S)-8-chloro-6-(((1-(1-(difluoromethyl)cyclopropyl)-5-fluoro-1H-1,2,3-triazol-4-yl)(1-methoxylsoquinolin-5-yl)methyl)amino)-4-(neopentylamino)quinoline-3-carbonitrile] |  |  | IC50 (Human Cot; [5]): 16 nM; EC50 (TNFα; [6]): 258 nM
7 | CC(C)(C)CNc1c(C#N)cnc2c(C#N)cc(N[C@H](c3cn(C4(C(F)(F)F)CC4)nn3)c3cccc4c3CNC4)cc12 [Example 451, (S)-6-((isoindolin-4-yl(1-(1-(trifluoro-methyl)cyclopropyl)-1H-1,2,3-triazol-4-yl)methyl)amino)-4-(neopentylamino)-quinoline-3,8-dicarbonitrile] | 3 nM | 138 nM | 
8 | CC(C)n1cc([C@@H](Nc2cc(Cl)c3ncc(C#N)c(Nc4ccc(F)c(Cl)c4)c3c2)c2ccnn2C)nn1 [Example 304, (S)-8-chloro-4-((3-chloro-4-fluorophenyl)amino)-6-(((1-isopropyl-1H-1,2,3-triazol-4-yl)(1-methyl-1H-pyrazol-5-yl)methyl)amino)quinoline-3-carbonitrile] | 6 nM | 234 nM | 
9 | CC(C)(C)CNc1c(C#N)cnc2c(Cl)cc(N[C@H](c3cn(C4(C)CC4)nn3)c3cccc4cnccc34)cc12 [Example 564, (S)-8-chloro-6-((isoquinolin-5-yl(1-(1-methylcyclopropyl)-1H-1,2,3-triazol-4-yl)methyl)amino)-4-(neopentylamino)-quinoline-3-carbonitrile] | 3 nM | 69 nM | 
10 | Cc1nc(F)ccc1[C@H](Nc1cc(Cl)c2ncc(C#N)c(NC3CCOC3(C)C)c2c1)c1cn(C2(C(F)F)CC2)nn1 (stereo partly drawn) [Example 511, 8-chloro-6-(((S)-(1-(1-(difluoromethyl)-cyclopropyl)-1H-1,2,3-triazol-4-yl)(6-fluoro-2-methylpyridin-3-yl)methyl)amino)-4-((2,2-dimethyltetrahydrofuran-3-yl)amino)-quinoline-3-carbonitrile] | 6 nM | 133 nM | 
11 | CN1Cc2c(cccc2[C@H](Nc2cc(Cl)c3ncc(C#N)c(NCC(C)(C)C)c3c2)c2cn(C3(C(F)F)CC3)nn2)C1=O [Example 737, (S)-8-chloro-6-(((1-(1-(difluoromethyl)cyclopropyl)-1H-1,2,3-triazol-4-yl)(2-methyl-1-oxoisoindolin-4-yl)methyl)amino)-4-(neopentylamino)quinoline-3-carbonitrile] | 3 nM | 91 nM | 
12 | N#CCC[C@@H](Nc1c(C#N)cnc2c(Cl)cc(N[C@@H](c3cccnc3)c3cn(C4CC4)nn3)cc12)c1ccccc1 [Example 75, 8-chloro-4-(((R)-3-cyano-1-phenylpropyl)amino)-6-(((S)-(1-cyclopropyl-1H-1,2,3-triazol-4-yl)(pyridin-3-yl)methyl)amino)quinoline-3-carbonitrile] | 2 nM | 79 nM | 
13 | COc1nccc2c([C@H](Nc3cc(C#N)c4ncc(C#N)c(NCC(C)(C)C)c4c3)c3cn(C45CC(C4)C5)nn3)cccc12 [Example 807, (S)-6-(((1-(bicyclo[1.1.1]pentan-1-yl)-1H-1,2,3-triazol-4-yl)(1-methoxylsoquinolin-5-yl)methyl)amino)-4-(neopentylamino)quinoline-3,8-dicarbonitrile] |  |  | IC50 (Human Cot; [5]): 3 nM; EC50 (TNFα; [6]): 31 nM
14 | Cn1cccc([C@H](Nc2cc(Cl)c3ncc(C#N)c(NCC(C)(C)C)c3c2)c2cn(C3(C(F)(F)F)CC3)nn2)c1=O [Example 936, (S)-8-chloro-6-(((1-methyl-2-oxo-1,2-dihydropyridin-3-yl)(1-(1-(trifluoromethyl)cyclopropyl)-1H-1,2,3-triazol-4-yl)methyl)amino)-4-(neopentylamino)quinoline-3-carbonitrile] |  |  | IC50 (Human Cot; [1]): 18 nM; EC50 (TNFα; [2]): 287 nM
15 | Cc1nc(F)ccc1[C@H](Nc1cc(Cl)c2ncc(C#N)c(NC3CCCCC3)c2c1)c1cn(C2(C(F)(F)F)CC2)nn1 [Example 588, (S)-8-chloro-4-(cyclohexylamino)-6-(((6-fluoro-2-methylpyridin-3-yl)(1-(1-(trifluoromethyl)cyclopropyl)-1H-1,2,3-triazol-4-yl)methyl)amino)quinoline-3-carbonitrile] | 55 nM | 629 nM | 
16 | [2H][C@](Nc1cc(Cl)c2ncc(C#N)c(Nc3cnc(F)c(F)c3)c2c1)(c1cccnc1)c1c[nH]nn1 [Example 164, (S)-8-chloro-4-((5,6-difluoropyridin-3-yl)amino)-6-((pyridin-3-yl(1H-1,2,3-triazol-4-yl)methyl-d)amino)quinoline-3-carbonitrile] | 5 nM | 1800 nM | 
17 | Cn1ccc2c([C@H](Nc3cc(Cl)c4ncc(C#N)c(NCC(C)(C)C(F)(F)F)c4c3)c3cn(C45CC(C4)C5)nn3)cccc2c1=O [Example 785, (S)-6-(((1-(bicyclo[1.1.1]pentan-1-yl)-1H-1,2,3-triazol-4-yl)(2-methyl-1-oxo-1,2-dihydroisoquinolin-5-yl)methyl)amino)-8-chloro-4-((3,3,3-trifluoro-2,2-dimethylpropyl)amino)quinoline-3-carbonitrile] | 2 nM |  | 
18 | COCCn1cc([C@@H](Nc2cc(Cl)c3ncc(C#N)c(Nc4ccc(F)c(Cl)c4)c3c2)c2cc(C#N)cs2)nn1 [Example 337, (R)-8-chloro-4-((3-chloro-4-fluorophenyl)amino)-6-(((4-cyanothiophen-2-yl)(1-(2-methoxy-ethyl)-1H-1,2,3-triazol-4-yl)methyl)amino)quinoline-3-carbonitrile] | 16 nM |  | 
19 | Cc1nc(F)ccc1[C@H](Nc1cc(Cl)c2ncc(C#N)c(NCC(C)(C)C)c2c1)c1cn(C(F)(F)CO)nn1 [Example 584, (S)-8-chloro-6-(((1-(i, 1-difluoro-2-hydroxyethyl)-1H-1,2,3-triazol-4-yl)(6-fluoro-2-methylpyridin-3-yl)methyl)amino)-4-(neopentylamino)quinoline-3-carbonitrile] |  |  | IC50 (Human Cot; read-out: IC50 HTRF, Cot HTRF (TR-FRET) biochemical assay): 2 nM
20 | CC(C)n1cc([C@@H](Nc2cc(Cl)c3ncc(C#N)c(Nc4ccc(F)c(Cl)c4)c3c2)c2cncn2C)nn1 [Example 311, (S)-8-chloro-4-((3-chloro-4-fluorophenyl)amino)-6-(((1-isopropyl-1H-1,2,3-triazol-4-yl)(1-methyl-1H-imidazol-5-yl)methyl)amino)quinoline-3-carbonitrile] | 30 nM |  | 
21 | N#Cc1cnc2c(Cl)cc(N[C@H](c3cn(C4COC4)nn3)c3cc(Br)cnc3Cl)cc2c1Nc1ccc(F)c(Cl)c1 [Example 320, (S)-6-(((5-bromo-2-chloropyridin-3-yl)(1-(oxetan-3-yl)-1H-1,2,3-triazol-4-yl)methyl)amino)-8-chloro-4-((3-chloro-4-fluorophenyl)amino)quinoline-3-carbonitrile] | 60 nM |  | 
22 | CC(C)(C)CNc1c(C#N)cnc2c(C#N)cc(N[C@H](c3cn(C4(C(F)(F)F)CC4)nn3)c3csc4c3CCN(C3COC3)C4)cc12 [Example 429, (S)-4-(neopentylamino)-6-(((6-(oxetan-3-yl)-4,5,6,7-tetrahydrothieno[2,3-c]pyridin-3-yl)(1-(1-(trifluoromethyl)cyclopropyl)-1H-1,2,3-triazol-4-yl)methyl)amino)-quinoline-3,8-dicarbonitrile] | 2 nM |  | 
